{"source": "patent US20260315464A1", "about": "“COMPOSITIONS, METHODS, AND SYSTEMS FOR MODULATING SPLICING OF MSH3” (REVIR THERAPEUTICS, INC., priority 2023, published 2026)", "tested_on": "MSH3", "assay": "QPCR assay for levels of MSH3 upon compound treatment in HEK293T or AD293 cells (fold-change of MSH3 transcript, EC50 of MSH3 downregulation; total MSH3 exons 13/14, exons 20/21; Table 8)", "assay_type": "cell-based", "details": "for mrna remaining at 1 µM / mrna remaining at 10 µM: Homo sapiens, fold-change of the MSH3 transcript, normalized to GAPDH; for mrna remaining at 1 µM: 1 μM compound; for mrna remaining at 10 µM: 10 μM compound; for EC50: EC50 of MSH3 downregulation, XtalPi", "outline": "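MSH3 mRNA was quantified by TaqMan qPCR covering exons 13/14, exons 20/21, exon 13/PE14A and exon 20/PE21A, with GAPDH as reference. Cells used were HEK293T or AD293, treated with compound at 1 μM and […].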", "data": [{"smiles": "Cn1cc(-c2cnc3c(c2)C(=O)N(c2ccc(OC4CC(C)(C)NC(C)(C)C4)nn2)C3)c(F)n1", "note": "[Compound 190, 3-(3-fluoro-1-methyl-1H-pyrazol-4-yl)-6-(6-((2,2,6,6-tetramethylpiperidin-4-yl)oxy)pyridazin-3-yl)-6,7-dihydro-5H-pyrrolo[3,4-b]pyridin-5-one]", "values": [{"measurement": "mrna remaining at 1 µM", "result": 106, "unit": "%"}, {"measurement": "mrna remaining at 10 µM", "result": 45, "unit": "%"}]}, {"smiles": "CN(c1ccc(N2Cc3ncc(-c4cnn(CC(C)(C)O)c4)nc3C2=O)nn1)[C@H]1C[C@]2(C)CC[C@](C)(C1)N2", "note": "[Compound 625, 6-(6-(((1R,3s,5S)-1,5-dimethyl-8-azabicyclo[3.2.1]octan-3-yl)(methyl)amino)pyridazin-3-yl)-3-(1-(2-hydroxy-2-methylpropyl)-1H-pyrazol-4-yl)-6,7-dihydro-5H-pyrrolo[3,4-b]pyrazin-5-one]", "values": [{"measurement": "mrna remaining at 1 µM", "result": 81, "unit": "%"}, {"measurement": "mrna remaining at 10 µM", "result": 108, "unit": "%"}]}, {"smiles": "Cc1nn(C)nc1-c1cnc2c(c1)C(=O)N(c1ccc(N3CC4CCC3CN4)nn1)C2", "note": "(stereo not drawn) [Compound 563, 6-(6-(2,5-diazabicyclo[2.2.2]octan-2-yl)pyridazin-3-yl)-3-(2,5-dimethyl-2H-1,2,3-triazol-4-yl)-6,7-dihydro-5H-pyrrolo[3,4-b]pyridin-5-one]", "values": [{"measurement": "mrna remaining at 1 µM", "result": 104, "unit": "%"}, {"measurement": "mrna remaining at 10 µM", "result": 35, "unit": "%"}]}, {"smiles": "Cn1ncc(-c2cnc3c(c2)C(=O)N(c2ccc(O[C@H]4C[C@]5(C)CC[C@](C)(C4)N5)nn2)C3)n1", "note": "[Compound 599, 6-(6-(((1R,3s,5S)-1,5-dimethyl-8-azabicyclo[3.2.1]octan-3-yl)oxy)pyridazin-3-yl)-3-(2-methyl-2H-1,2,3-triazol-4-yl)-6,7-dihydro-5H-pyrrolo[3,4-b]pyridin-5-one]", "values": [{"measurement": "mrna remaining at 1 µM", "result": 94, "unit": "%"}, {"measurement": "mrna remaining at 10 µM", "result": 24, "unit": "%"}]}, {"smiles": "Cc1nn(C)nc1-c1cc(F)c2c(c1)C(=O)N(c1ccc(N3CCNC(C)(C)C3)nn1)C2", "note": "[Compound 643, 6-(2,5-dimethyl-2H-1,2,3-triazol-4-yl)-2-(6-(3,3-dimethylpiperazin-1-yl)pyridazin-3-yl)-4-fluoroisoindolin-1-one]", "values": [{"measurement": "mrna remaining at 1 µM", "result": 109, "unit": "%"}, {"measurement": "mrna remaining at 10 µM", "result": 72, "unit": "%"}]}, {"smiles": "CN(c1ncc(N2Cc3cnc(-c4cnn(C)n4)cc3C2=O)nn1)[C@H]1C[C@]2(C)CC[C@](C)(C1)N2", "note": "[Compound 73, 2-(3-(((1R,3s,5S)-1,5-dimethyl-8-azabicyclo[3.2.1]octan-3-yl)(methyl)amino)-1,2,4-triazin-6-yl)-6-(2-methyl-2H-1,2,3-triazol-4-yl)-2,3-dihydro-1H-pyrrolo[3,4-c]pyridin-1-one]", "values": [{"measurement": "mrna remaining at 1 µM", "result": 85, "unit": "%"}, {"measurement": "mrna remaining at 10 µM", "result": 70, "unit": "%"}]}, {"smiles": "COc1cc(-c2nn(C)nc2C)cc2c1CN(c1ccc(N(C)[C@H]3C[C@]4(C)CC[C@](C)(C3)N4)nn1)C2=O", "note": "[Compound 687, 6-(2,5-dimethyl-2H-1,2,3-triazol-4-yl)-2-(6-(((1R,3s,5S)-1,5-dimethyl-8-azabicyclo[3.2.1]octan-3-yl)(methyl)amino)pyridazin-3-yl)-4-methoxyisoindolin-1-one]", "values": [{"measurement": "mrna remaining at 1 µM", "result": 110, "unit": "%"}, {"measurement": "mrna remaining at 10 µM", "result": 19, "unit": "%"}]}, {"smiles": "Cc1nc(C)c(-c2cc3c(cn2)CN(c2ccc(N(C)[C@H]4C[C@]5(C)CC[C@](C)(C4)N5)nn2)C3=O)s1", "note": "[Compound 62, 2-(6-(((1R,3s,5S)-1,5-dimethyl-8-azabicyclo[3.2.1]octan-3-yl)(methyl)amino)pyridazin-3-yl)-6-(2,4-dimethylthiazol-5-yl)-2,3-dihydro-1H-pyrrolo[3,4-c]pyridin-1-one]", "values": [{"measurement": "EC50", "result": 690, "unit": "nM"}, {"measurement": "mrna remaining at 1 µM", "result": 18, "unit": "%"}, {"measurement": "mrna remaining at 10 µM", "result": 8, "unit": "%"}]}, {"smiles": "Cc1nn(C)cc1-c1cc(F)c2c(c1)C(=O)N(c1ccc(N(C)[C@H]3C[C@]4(C)CC[C@](C)(C3)N4)nn1)C2", "note": "[Compound 274, 6-(1,3-dimethyl-1H-pyrazol-4-yl)-2-(6-(((1R,3s,5S)-1,5-dimethyl-8-azabicyclo[3.2.1]octan-3-yl)(methyl)amino)pyridazin-3-yl)-4-fluoroisoindolin-1-one]", "values": [{"measurement": "EC50", "result": 454, "unit": "nM"}, {"measurement": "mrna remaining at 1 µM", "result": 17, "unit": "%"}]}, {"smiles": "CN(c1ccc(N2Cc3ncc(-c4cnn(C)n4)cc3C2=O)nn1)[C@H]1C[C@]2(C)CC[C@](C)(C1)N2", "note": "[Compound 188, 6-(6-(((1R,3s,5S)-1,5-dimethyl-8-azabicyclo[3.2.1]octan-3-yl)(methyl)amino)pyridazin-3-yl)-3-(2-methyl-2H-1,2,3-triazol-4-yl)-6,7-dihydro-5H-pyrrolo[3,4-b]pyridin-5-one]", "values": [{"measurement": "EC50", "result": 960, "unit": "nM"}, {"measurement": "mrna remaining at 1 µM", "result": 18, "unit": "%"}, {"measurement": "mrna remaining at 10 µM", "result": 5, "unit": "%"}]}, {"smiles": "Cn1nc(Cl)c(-c2cc(F)c3c(c2)C(=O)N(c2ccc(N4CC5CC(C4)N5)nn2)C3)n1", "note": "[Compound 655, 2-(6-(3,6-diazabicyclo[3.1.1]heptan-3-yl)pyridazin-3-yl)-6-(5-chloro-2-methyl-2H-1,2,3-triazol-4-yl)-4-fluoroisoindolin-1-one]", "values": [{"measurement": "mrna remaining at 1 µM", "result": 115, "unit": "%"}, {"measurement": "mrna remaining at 10 µM", "result": 48, "unit": "%"}]}, {"smiles": "C[C@@H]1CN(c2ccc(N3Cc4c(F)cc(-c5nn(C)nc5Cl)cc4C3=O)nn2)C[C@H](C)N1", "note": "[Compound 636, 6-(5-chloro-2-methyl-2H-1,2,3-triazol-4-yl)-2-(6-((3S,5R)-3,5-dimethylpiperazin-1-yl)pyridazin-3-yl)-4-fluoroisoindolin-1-one]", "values": [{"measurement": "mrna remaining at 1 µM", "result": 95, "unit": "%"}, {"measurement": "mrna remaining at 10 µM", "result": 41, "unit": "%"}]}, {"smiles": "Cn1nc(Cl)c(-c2cc3c(cn2)CN(c2ccc(O[C@H]4C[C@]5(C)CC[C@](C)(C4)N5)nn2)C3=O)n1", "note": "[Compound 460, 6-(5-chloro-2-methyl-2H-1,2,3-triazol-4-yl)-2-(6-(((1R,3s,5S)-1,5-dimethyl-8-azabicyclo[3.2.1]octan-3-yl)oxy)pyridazin-3-yl)-2,3-dihydro-1H-pyrrolo[3,4-c]pyridin-1-one]", "values": [{"measurement": "mrna remaining at 1 µM", "result": 80, "unit": "%"}, {"measurement": "mrna remaining at 10 µM", "result": 25, "unit": "%"}]}, {"smiles": "Cn1nc(Cl)c(-c2cnc3c(c2)C(=O)N(c2ccc(N4CCC[C@@H](NC(C)(C)C)C4)nn2)C3)n1", "note": "[Compound 617, (R)-6-(6-(3-(tert-butylamino)piperidin-1-yl)pyridazin-3-yl)-3-(5-chloro-2-methyl-2H-1,2,3-triazol-4-yl)-6,7-dihydro-5H-pyrrolo[3,4-b]pyridin-5-one]", "values": [{"measurement": "mrna remaining at 1 µM", "result": 93, "unit": "%"}, {"measurement": "mrna remaining at 10 µM", "result": 70, "unit": "%"}]}, {"smiles": "CN(c1ccc(N2Cc3cnc(-c4cnn(C)n4)cc3C2=O)nn1)[C@H]1C[C@]2(C)CC[C@](C)(C1)N2", "note": "[Compound 70, 2-(6-(((1R,3s,5S)-1,5-dimethyl-8-azabicyclo[3.2.1]octan-3-yl)(methyl)amino)pyridazin-3-yl)-6-(2-methyl-2H-1,2,3-triazol-4-yl)-2,3-dihydro-1H-pyrrolo[3,4-c]pyridin-1-one]", "values": [{"measurement": "mrna remaining at 1 µM", "result": 139, "unit": "%"}, {"measurement": "mrna remaining at 10 µM", "result": 56, "unit": "%"}]}, {"smiles": "CC(C)(O)Cn1cc(-c2cc3c(cn2)CN(c2ccc(OC4CC(C)(C)NC(C)(C)C4)nn2)C3=O)cn1", "note": "[Compound 21, 6-(1-(2-hydroxy-2-methylpropyl)-1H-pyrazol-4-yl)-2-(6-((2,2,6,6-tetramethylpiperidin-4-yl)oxy)pyridazin-3-yl)-2,3-dihydro-1H-pyrrolo[3,4-c]pyridin-1-one]", "values": [{"measurement": "mrna remaining at 1 µM", "result": 54, "unit": "%"}, {"measurement": "mrna remaining at 10 µM", "result": 58, "unit": "%"}]}, {"smiles": "Cn1ncc(-c2cnc3c(c2)C(=O)N(c2ccc(OC4CCC(C)(C)NC(C)(C)C4)nn2)C3)n1", "note": "(stereo not drawn) [Compound 485, 3-(2-methyl-2H-1,2,3-triazol-4-yl)-6-(6-((2,2,7,7-tetramethylazepan-4-yl)oxy)pyridazin-3-yl)-6,7-dihydro-5H-pyrrolo[3,4-b]pyridin-5-one]", "values": [{"measurement": "mrna remaining at 1 µM", "result": 88, "unit": "%"}, {"measurement": "mrna remaining at 10 µM", "result": 40, "unit": "%"}]}]}
